Assay results from BindingDB's records for doi:10.1021/jm960509y (Abbott Laboratories, 1997).
*1 amine or outer side, *2 acyl side, *3 side chain or, on linkers, in order; H or OH if unused. Where a SMILES comes first, the peptide text is derived from it. Side-chain parts run from the residue outwards. [ ]: non-standard residue; d: D form. The star is where a group is joined. ξ: configuration not given here. NH(4-MeO-phenyl) = COc1ccc(N*)cc1; ξW = NC(Cc1c[nH]c2ccccc12)C(=O)O; pNA = O=[N+]([O-])c1ccc(N*)cc1; X2 = O=[N+]([O-])c1cccc(N*)c1; NH(3-MeOPh) = COc1cccc(N*)c1; 3Abz = Nc1cccc(C(=O)O)c1; ξF = NC(Cc1ccccc1)C(=O)O; X1 = CC(=O)c1ccc(N*)cc1; ξD = NC(CC(=O)O)C(=O)O; Boc = CC(C)(C)OC(=O)*; CO = O=C([*:1])[*:2]

biological target: Gastrin/cholecystokinin type B receptor (Cavia porcellus); experiment: Displacement of [125I]- BH-CCK-8 from Cholecystokinin type B receptor of guinea pig cortex

Row | SMILES | IC50 [nM]
1 | CC(C)(C)OC(=O)N[C@@H](Cc1c[nH]c2ccccc12)C(=O)N[C@@H](CCCCNC(=O)Nc1cccc([N+](=O)[O-])c1)C(=O)N[C@@H](CC(=O)O)C(=O)N[C@@H](Cc1ccccc1)C(N)=O [3-{(S)-2-[2-tert-Butoxycarbonylamino-3-(1H-indol-3-yl)-propionylamino]-6-[3-(3-nitro-phenyl)-ureido]-hexanoylamino}-N-(1-carbamoyl-2-phenyl-ethyl)-succinamic acid] (Boc-WK([CO-X2])DF-NH2) | 1200
2 | COc1ccc(NC(=O)NCCCC[C@H](NC(=O)C(Cc2c[nH]c3ccccc23)NC(=O)OC(C)(C)C)C(=O)NC(CC(=O)O)C(=O)NC(Cc2ccccc2)C(N)=O)cc1 (stereo partly drawn) [3-{(S)-2-[2-tert-Butoxycarbonylamino-3-(1H-indol-3-yl)-propionylamino]-6-[3-(4-methoxy-phenyl)-ureido]-hexanoylamino}-N-(1-carbamoyl-2-phenyl-ethyl)-succinamic acid] (Boc-[ξW]K([CO-NH(4-MeO-phenyl)])[ξD][ξF]-NH2) | 750
3 | CC(C)(C)OC(=O)NC(Cc1c[nH]c2ccccc12)C(=O)N[C@@H](CCCCNC(=O)Nc1ccc([N+](=O)[O-])cc1)C(=O)NC(CC(=O)O)C(=O)NC(Cc1ccccc1)C(N)=O (stereo partly drawn) [3-{(S)-2-[2-tert-Butoxycarbonylamino-3-(1H-indol-3-yl)-propionylamino]-6-[3-(4-nitro-phenyl)-ureido]-hexanoylamino}-N-(1-carbamoyl-2-phenyl-ethyl)-succinamic acid] (Boc-[ξW]K([CO-pNA])[ξD][ξF]-NH2) | 31
4 | CC(=O)c1ccc(NC(=O)NCCCC[C@H](NC(=O)C(Cc2c[nH]c3ccccc23)NC(=O)OC(C)(C)C)C(=O)NC(CC(=O)O)C(=O)NC(Cc2ccccc2)C(N)=O)cc1 (stereo partly drawn) [3-{(S)-6-[3-(4-Acetyl-phenyl)-ureido]-2-[2-tert-butoxycarbonylamino-3-(1H-indol-3-yl)-propionylamino]-hexanoylamino}-N-(1-carbamoyl-2-phenyl-ethyl)-succinamic acid] (Boc-[ξW]K([CO-X1])[ξD][ξF]-NH2) | 12
5 | COC(=O)c1cccc(NC(=O)NCCCC[C@H](NC(=O)C(Cc2c[nH]c3ccccc23)NC(=O)OC(C)(C)C)C(=O)NC(CC(=O)O)C(=O)NC(Cc2ccccc2)C(N)=O)c1 (some centres not stated) (Boc-[ξW]K([CO-3Abz-OMe])[ξD][ξF]-NH2) | 1000
6 | COc1cccc(NC(=O)NCCCC[C@H](NC(=O)C(Cc2c[nH]c3ccccc23)NC(=O)OC(C)(C)C)C(=O)NC(CC(=O)O)C(=O)NC(Cc2ccccc2)C(N)=O)c1 (stereo partly drawn) [3-{(S)-2-[2-tert-Butoxycarbonylamino-3-(1H-indol-3-yl)-propionylamino]-6-[3-(3-methoxy-phenyl)-ureido]-hexanoylamino}-N-(1-carbamoyl-2-phenyl-ethyl)-succinamic acid] (Boc-[ξW]K([CO-NH(3-MeOPh)])[ξD][ξF]-NH2) | 1400

biological target: Gastrin/cholecystokinin type B receptor (Cavia porcellus); experiment: Inhibitory activity against Cholecystokinin type B receptor using [125I]- BH-CCK-8 as radioligand in cortex tissue of guinea pig

Row | SMILES | IC50 [nM]
7 | CSCCC(NC(=O)NC(CC(=O)O)C(=O)NC(Cc1ccccc1)C(N)=O)C(=O)NC(=O)C(Cc1c[nH]c2ccccc12)NC(=O)OC(C)(C)C (configuration not stated) [3-(3-{1-[2-tert-Butoxycarbonylamino-3-(1H-indol-3-yl)-propionylcarbamoyl]-3-methylsulfanyl-propyl}-ureido)-N-(1-carbamoyl-2-phenyl-ethyl)-succinamic acid] | 25
